Experimental data published in publication PMC12386283, “Elucidating the Complex Structural and Molecular Mechanisms Driving P-Glycoprotein-Mediated Transport of Cardiac Glycosides” (International Journal of Molecular Sciences, 2025).
Values joined by “and” are separate entries in the source; they are usually repeats but may differ in a detail not shown here. Identical values can stand only once. Like-named read-outs stand apart in the source and are kept apart here.

What was measured:
[1] = molecular target: T1, wild-type mouse Pgp (MDR3) (Mus musculus, UniProt P21447); assay: biochemical
T1 sequence (P21447 whole entry): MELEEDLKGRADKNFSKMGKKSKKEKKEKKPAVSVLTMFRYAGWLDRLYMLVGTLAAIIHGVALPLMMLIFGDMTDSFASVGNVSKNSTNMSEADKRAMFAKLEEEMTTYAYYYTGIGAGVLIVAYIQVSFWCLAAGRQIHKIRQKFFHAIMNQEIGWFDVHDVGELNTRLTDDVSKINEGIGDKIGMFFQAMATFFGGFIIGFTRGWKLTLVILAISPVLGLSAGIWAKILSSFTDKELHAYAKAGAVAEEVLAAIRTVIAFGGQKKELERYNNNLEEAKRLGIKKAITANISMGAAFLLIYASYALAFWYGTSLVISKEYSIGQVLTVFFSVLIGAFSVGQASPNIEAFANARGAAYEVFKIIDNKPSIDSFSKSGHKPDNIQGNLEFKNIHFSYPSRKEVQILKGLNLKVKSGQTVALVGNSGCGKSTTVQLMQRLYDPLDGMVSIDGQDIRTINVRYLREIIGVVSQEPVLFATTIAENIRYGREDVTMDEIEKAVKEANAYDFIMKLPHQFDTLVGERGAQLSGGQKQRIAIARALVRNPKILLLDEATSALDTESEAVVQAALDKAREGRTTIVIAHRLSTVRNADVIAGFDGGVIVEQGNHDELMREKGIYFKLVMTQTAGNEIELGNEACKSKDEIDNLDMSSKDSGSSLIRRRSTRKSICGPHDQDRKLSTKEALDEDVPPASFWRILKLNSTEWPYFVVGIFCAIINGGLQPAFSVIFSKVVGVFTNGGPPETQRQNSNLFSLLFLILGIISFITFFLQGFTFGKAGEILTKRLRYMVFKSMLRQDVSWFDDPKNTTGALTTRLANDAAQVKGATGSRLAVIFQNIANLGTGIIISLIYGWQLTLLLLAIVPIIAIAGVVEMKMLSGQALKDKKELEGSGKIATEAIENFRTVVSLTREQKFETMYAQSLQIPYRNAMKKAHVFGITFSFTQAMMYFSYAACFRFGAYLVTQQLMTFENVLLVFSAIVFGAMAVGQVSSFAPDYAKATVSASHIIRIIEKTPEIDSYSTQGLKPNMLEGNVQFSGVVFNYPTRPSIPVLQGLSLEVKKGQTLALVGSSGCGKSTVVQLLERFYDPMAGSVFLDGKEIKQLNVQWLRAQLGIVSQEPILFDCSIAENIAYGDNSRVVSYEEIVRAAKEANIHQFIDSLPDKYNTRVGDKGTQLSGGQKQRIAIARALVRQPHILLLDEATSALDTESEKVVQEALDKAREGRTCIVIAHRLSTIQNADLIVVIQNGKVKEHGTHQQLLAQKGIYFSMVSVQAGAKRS
Procedure: Overexpression of wild-type mouse Pgp (MDR3) was achieved by using genetically engineered strains of Pichia pastoris with a 6X histidine tag. The cells were cultured in glycerol media, and methanol was used to induce the overexpression of Pgp at the Bioexpression and Fermentation Facility (BFF), University of Georgia, Athens, GA, USA. A repeated cycle of freezing using liquid nitrogen, blending, and thawing was used to lyse the Pgp-expressing P. pastoris cells. The protein was purified using affinity chromatography with nickel-nitrilotriacetic acid (Ni-NTA) resin (Thermo Fisher Scientific, Waltham, MA, USA). DDM was used to solubilize the protein, and the solution was concentrated using Amicon Ultra-15 100 kDa cut-off filters (EMD Millipore, Billerica, MA, USA). The concentration of purified protein was measured at 280 nm using a calculated extinction coefficient of 1.28 per mg mL^−1 on a Nanodrop (DeNovix, Wilmington, DE, USA). […] The purified DDM-solubilized Pgp was aliquoted and stored at −80 °C for future analysis.
Approximately 40 µL of DDM-solubilized Pgp was dialyzed for two hours against HEPES buffer (20 mM HEPES, 100 mM NaCl, 5 mM MgCl2, 2 mM DTT, pH 7.4) to remove any remnants of the detergent, DDM. The dialyzed protein was mixed with 4 mg mL^−1 of the extruded liposomes and incubated on ice for at least one hour to allow Pgp to integrate into the liposomes. To remove any additional detergent and further facilitate Pgp integration into the liposome, the solution was dialyzed for a second time for two hours in HEPES buffer to form proteoliposomes, and the concentration of Pgp reconstituted in liposomes was determined using the Bio-Rad DC Protein assay. Finally, the solution was aliquoted and stored at −80 °C for future use.
The intrinsic tryptophan residues in the protein can be selectively excited and emitted at 295 nm and 330 nm wavelengths, respectively. The binding of the drug to the protein can alter the spatial arrangement encountered by the tryptophan residue(s) and thereby regulate the fluorescence intensity of the protein [52]. […] Proteoliposomes diluted to 1 µM in Chifflet buffer containing 2 mM DTT were titrated against varying concentrations of drugs. The intrinsic protein fluorescence was measured at 330 nm upon excitation at 295 nm using an Olis DM 45 spectrophotometer (Olis Corporation, Bogart, GA, USA). To nullify the effect of Rayleigh bands on the observed spectra, a 10 nm band-pass filter was inserted on the excitation and emission paths of the spectrophotometer. The drug-induced quenching of intrinsic Pgp fluorescence was corrected (Fcorrected) for factors such as dilution, background fluorescence, and inner filter effects using the equation mentioned below (Equation (2)).(2) Fcorrected=F−B10^εexbex+εembemQ/2 where Fcorrected = Drug-induced quenching of intrinsic Pgp fluorescence; F = Emitted intrinsic Pgp fluorescence at 330 nm; [Q] = Concentration of drug; εex and εem = Excitation and emission extinction coefficients, respectively; bex and bem = Path lengths of excitation (0.4 mm) and emission (10 mm) wavelengths, respectively; and B = Background fluorescence measured from drug and solvent.
The resulting quenching curves were fit using a modified Stern-Volmer equation (Equation (3)), as follows:(3) Fcorrected=FOcorrected/1+KsvQ+Funquenched where Fcorrected = The corrected fluorescence; F0(corrected) = Fluorescence recorded in the absence of drug; [Q] = Concentration of drug; Ksv = Stern–Volmer constant; and F(unquenched) = unquenched fluorescence.

[2] = molecular target: T1, wild-type mouse Pgp (MDR3)
From the text: The STDD NMR technique is a robust method used to characterize the interaction between a drug and receptor protein [36, 86]. This technique utilizes a saturated low-strength radio frequency (RF) to selectively excite the receptor protein. […] Due to the localization of Pgp, most of its substrates are lipophilic, resulting in a probable non-specific interaction between its substrates and liposomes in the observed STD NMR spectrum. Therefore, STD NMR of liposomes in the presence of drugs was performed. The resulting spectrum was subtracted from the ^1H STD NMR spectrum obtained from the drug in the presence of proteoliposome (Pgp reconstituted into liposome) to achieve a saturation transfer double-difference (STDD) NMR spectrum, which nullified the STD observations of the drugs in the presence of liposomes.
This technique was performed as previously described. […] The NMR tubes with the sample were centrifuged at 3000× g for 5 min. To suppress the background signals caused by water, a tailored gradient pulse sequence known as water suppression by gradient-tailored excitation (WATERGATE) was also included. A train of 50 ms Gaussian-shaped selective pulses was used to selectively excite and saturate Pgp for two seconds, and a relaxation delay of five seconds was also used. The STD NMR spectra for both the control and the samples were obtained through phase cycling, where the Pgp irradiation resonance was alternated between 1.5 ppm and 42 ppm on and off resonance, respectively, for 512 scans, creating the ^1H NMR spectrum.
For this experiment, the NMR studies were performed on a Bruker Avance NEO 800 MHz NMR spectrometer with a 1.7 mm TCI H{CN} probe at 25 °C. The STD NMR data generated were analyzed using iNMR software (Nucleomatic, Molfetta, Italy), Igor Pro 6.2, and Mnova 14.2.0 (Mastrelab Research S.L., Santiago de Compostela, Spain).

[3] = 1 µM proteoliposome, excitation 295 nm, emission 330 nm, absence of ATP and co-factors

With `C[C@H]1O[C@@H](O[C@H]2[C@@H](O)C[C@H](O[C@H]3[C@@H](O)C[C@H](O[C@H]4CC[C@@]5(C)[C@H](CC[C@@H]6[C@@H]5C[C@@H](O)[C@]5(C)[C@@H](C7=CC(=O)OC7)CC[C@]65O)C4)O[C@@H]3C)O[C@@H]2C)C[C@H](O)[C@@H]1O` [Digoxin] the Kd [1] was 6.85 ± 0.83 µM, the “Stern-Volmer constant (Ksv) from CG-induced tryptophan fluorescence quenching in Pgp” value (“Stern-Volmer constant (Ksv)” below) [1] was 0.146 ± 0.0117 and 0.146 ± 0.0117 µM^−1 and the “Interaction (Region/Group) Pgp (STDD-NMR Data)” value (“Interaction (Region/Group) Pgp” for short) ([2]; mouse, not told, 1 mM, pH 7.4) was “Protons on C3,C18, C19 of steroid; C22 of lactone; C3,C5,C6 of sugar”.

With `C[C@]12CC[C@H](O)C[C@H]1CC[C@@H]1[C@@H]2CC[C@]2(C)[C@@H](C3=CC(=O)OC3)CC[C@]12O` [Digitoxigenin, (3β,5β)-3,14-Dihydroxy-card-20(22)-enolide] the Kd [1] was 56.7 ± 15.6 µM, the “Stern-Volmer constant (Ksv)” value [1, 3] was 0.01765 ± 0.0048 µM⁻¹ and the “Interaction (Region/Group) Pgp” value ([2]; 1 mM drug, 1 µM Pgp, 25 °C) was “Protons on C1, C12, C18, C19 of steroid; C22 of lactone”.

For `C[C@]12CC[C@H](O)C[C@H]1CC[C@@H]1[C@@H]2C[C@@H](O)[C@]2(C)[C@@H](C3=CC(=O)OC3)CC[C@]12O` [Digoxigenin, 3β,12β,14-Trihydroxy-5β,20(22)-cardenolide], the “Stern-Volmer constant (Ksv)” value [1, 3] was 0.09839 ± 0.0146 µM⁻¹ and the “Interaction (Region/Group) Pgp” value ([2]; 1 mM drug, 1 µM Pgp, 25 °C) was “Protons on C1, C3,C12, C17, C18, C19 of steroid; C21, C22 of lactone”.
